Nc1ccc(N2CCOCC2=O)cc1
solubility (mole fraction)
Conditions	in 1,4-dioxane	in THF	in ethanol	in ethyl acetate	in methanol	in n-propanol
278.15 K	0.00411	0.00138	0.00127	0.000559	0.00172	0.000322
283.15 K	0.00529	0.00182	0.00162	0.000794	0.00221	0.000404
288.15 K	0.00665	0.00245	0.00208	0.0011	0.00285	0.000506
293.15 K	0.0083	0.00323	0.0026	0.00149	0.00367	0.000649
298.15 K	0.0102	0.00423	0.00321	0.00196	0.00463	0.000825
303.15 K	0.0125	0.00542	0.00393	0.00257	0.00589	0.00105
308.15 K	0.0149	0.00687	0.00475	0.00326	0.00751	0.00133
313.15 K	0.0178	0.00865	0.00567	0.00412	0.00955	0.0017
318.15 K	0.0209	0.0107	0.00672	0.00509	0.0121	0.00216
323.15 K	0.0244	0.0132	0.00792	0.0062	0.0153	0.00274
328.15 K	0.0282	0.0159	0.00928	0.00743	0.019	0.00348
333.15 K	0.032	0.0191	0.0107	0.00873	0.0239	0.00443

— BigSolDB 2.1
